Measured values as given in patent US9353072B2, “Antimicrobial substituted thiazoles and methods of use” (Purdue Research Foundation, priority 2012, dated 2016).
Values after ≈ are worked out from the molar mass of the structure shown. Read-outs that look alike come from different tables or passages of the source.

Tests used:
[1] = tested on: MRSA ATCC 700699 (NRS1, VISA); experiment: MIC/MBC broth microdilution, NRS1 (ATCC 700699); type: cell-based; details: Staphylococcus aureus
Description: (§1) Determination of minimum inhibitory concentration (MIC). The MICs of the lead thiazole compound (compound 1a) and nine derivatives tested against all 18 MRSA strains were determined, in triplicate samples, using the broth microdilution method in accordance with the recommendations contained in the CLSI guidelines.

MRSA USA400 (NRS123) = experiment: MIC/MBC broth microdilution, NRS123 (USA400); type: cell-based; details: Staphylococcus aureus
Description: as §1

MRSA ATCC 43300 = experiment: MIC/MBC broth microdilution, MRSA ATCC 43300; type: cell-based, Staphylococcus aureus; details: Staphylococcus aureus
Description: as §1

VISA LIM 3 (NRS37) = experiment: MIC/MBC broth microdilution, NRS37 (VISA LIM 3); type: cell-based; details: Staphylococcus aureus
Description: as §1

NRS107 = experiment: MIC/MBC broth microdilution, NRS107; type: cell-based; details: Staphylococcus aureus
Description: as §1

MRSA USA500 (NRS385) = experiment: MIC/MBC broth microdilution, NRS385 (USA500); type: cell-based; details: Staphylococcus aureus
Description: as §1

VRSA (VRS10) = experiment: MIC/MBC broth microdilution, VRSA (VRS10); type: cell-based, Staphylococcus aureus; details: Staphylococcus aureus, VRSA
Description: as §1

NRS119 = experiment: MIC/MBC broth microdilution, NRS119; type: cell-based; details: Staphylococcus aureus
Description: as §1

MRSA NRS384 (USA300) = experiment: MIC/MBC broth microdilution, NRS384 (USA300); type: cell-based; details: Staphylococcus aureus
Description: as §1

VISA HIP07256 (NRS19) = experiment: MIC/MBC broth microdilution, NRS19 (VISA HIP07256); type: cell-based; details: Staphylococcus aureus
Description: as §1

NRS194 = experiment: MIC/MBC broth microdilution, NRS194; type: cell-based; details: Staphylococcus aureus
Description: as §1

MRSA USA100 = experiment: MIC broth microdilution, MRSA USA100; type: cell-based; details: Staphylococcus aureus, read-out: Minimum Inhibitory Concentration
Description: as §1

MRSA (USA300) = experiment: Time-kill assay; type: cell-based, Staphylococcus aureus; details: 3.0×MIC; MRSA (USA300)
Description: Time-kill assay. […] Viable CFU/mL was determined by serial dilution and plating on trypticase soy agar (TSA) (Becton, Dickinson and Company, Sparks, Md., USA) plates after 0, 2, 4, 6, 8, 10, and 12 hours of incubation at 37° C. to identify the time required to reduce the bacterial cell count by 3-log10.

MRSA USA200 = experiment: MIC broth microdilution, MRSA USA200; type: cell-based; details: Staphylococcus aureus, read-out: Minimum Inhibitory Concentration
Description: as §1

[2] = read-out: Minimum Bactericidal Concentration
[3] = read-out: Minimum Inhibitory Concentration
[4] = NRS 119 / VISA, read-out: Minimum Inhibitory Concentration

Structure (SMILES) | MBC [1] | MBC (MRSA USA400 (NRS123)) | MIC (MRSA USA400 (NRS123)) | MBC (MRSA ATCC 43300) | MIC (MRSA ATCC 43300) | MIC (MRSA ATCC 43300; [3]) | MBC (VISA LIM 3 (NRS37)) | MBC (NRS107) | MIC (NRS107) | MBC (MRSA USA500 (NRS385)) | MIC (MRSA USA500 (NRS385)) | MBC (NRS119; NRS119) | MIC (NRS119; NRS119) | MIC (NRS119; [4]) | MBC (MRSA NRS384 (USA300)) | MIC (MRSA NRS384 (USA300)) | MBC (VISA HIP07256 (NRS19)) | MIC (VISA HIP07256 (NRS19)) | MBC (NRS194) | MIC (NRS194) | further results
C/C(=N\NC(=N)N)c1sc(-c2cccc(F)c2)nc1C [Compound M16, (E)-2-(1-(2-(3-fluorophenyl)-4-methylthiazol-5-yl)ethylidene)hydrazinecarboximidamide] | 128 µM (≈ 37.3 µg/mL) | 128 µM (≈ 37.3 µg/mL) | 128 µM (≈ 37.3 µg/mL) | 128 µM (≈ 37.3 µg/mL) | 128 µM (≈ 37.3 µg/mL) | 32 µM (≈ 9.32 µg/mL) | 128 µM (≈ 37.3 µg/mL) | 128 µM (≈ 37.3 µg/mL) | 128 µM (≈ 37.3 µg/mL) | 128 µM (≈ 37.3 µg/mL) | 128 µM (≈ 37.3 µg/mL) | 128 µM (≈ 37.3 µg/mL) | 128 µM | 64 µM | 128 µM (≈ 37.3 µg/mL) | 128 µM (≈ 37.3 µg/mL) | 128 µM (≈ 37.3 µg/mL) | 128 µM (≈ 37.3 µg/mL) | 128 µM (≈ 37.3 µg/mL) | 128 µM (≈ 37.3 µg/mL) | MIC ([1]; 20 h): 128 µM (≈ 37.3 µg/mL); MBC [1, 2]: 64 µM (≈ 18.6 µg/mL); MIC [1, 3]: 32 µM (≈ 9.32 µg/mL); MIC (MRSA ATCC 43300; 20 h): 32 µM (≈ 9.32 µg/mL); MBC (MRSA ATCC 43300; [2]): 64 µM (≈ 18.6 µg/mL); MIC (VISA LIM 3 (NRS37)): 128 µM (≈ 37.3 µg/mL); MBC (VRSA (VRS10); [2]): 128 µM (≈ 37.3 µg/mL); MIC (VRSA (VRS10); [3]): 32 µM (≈ 9.32 µg/mL); MBC (NRS119; NRS 119 / VISA, read-out: Minimum Bactericidal Concentration): 64 µM (≈ 18.6 µg/mL)
CN[C@H](CC(C)C)C(=O)N[C@H]1C(=O)N[C@@H](CC(N)=O)C(=O)N[C@H]2C(=O)N[C@H]3C(=O)N[C@H](C(=O)N[C@H](C(=O)O)c4cc(O)cc(O)c4-c4cc3ccc4O)[C@H](O)c3ccc(c(Cl)c3)Oc3cc2cc(c3O[C@@H]2O[C@H](CO)[C@@H](O)[C@H](O)[C@H]2O[C@H]2C[C@](C)(N)[C@H](O)[C@H](C)O2)Oc2ccc(cc2Cl)[C@H]1O [Vancomycin, reference compound] | 2 µM (≈ 2.9 µg/mL) | 0.5 µM (≈ 0.725 µg/mL) | 0.5 µM (≈ 0.725 µg/mL) | 0.5 µM (≈ 0.725 µg/mL) | 0.5 µM (≈ 0.725 µg/mL) | < 1 µM | 2 µM (≈ 2.9 µg/mL) | < 1 µM | < 1 µM | 0.5 µM (≈ 0.725 µg/mL) | 0.5 µM (≈ 0.725 µg/mL) | < 1 µM | < 1 µM | < 1 µM | 0.5 µM (≈ 0.725 µg/mL) | 0.5 µM (≈ 0.725 µg/mL) | < 1 µM | < 1 µM | 0.5 µM (≈ 0.725 µg/mL) | 0.5 µM (≈ 0.725 µg/mL) | MIC (MRSA USA100): 1.4 µg/mL (≈ 0.966 µM); time to reduce the number of CFU by 3-log10 (MRSA (USA300)): > 12 hours; MIC (NRS119; NRS119, read-out: Minimum Inhibitory Concentration): 1.4 µg/mL; MIC (MRSA USA200): 0.4 µg/mL (≈ 0.276 µM)
